Test system: EpiDerm™ Skin Model
Experiment: Skin Irritancy Potential Test via in vitro skin equivalents (IL-1α release)
Format: cell-based, human
Details: Table 12; vs C30
Description: The EpiDerm™ Skin Model provided by MatTek Corporation was used in this study. The target cells are epithelial, derived from human skin. The test materials are applied directly to the culture surface, at air interface, so that undiluted and/or end use dilutions can be tested directly.
The experimental design used in this study consisted of a definitive assay to determine the release of one cytokine. Where tissue viability is not decreased by 50% as compared to the negative control tissue (as measured by MTT reduction), the inflammatory potential is then measured by the synthesis/release of the cytokine IL-1α.
In the treatment phase six skin equivalents are used for each diluted test product, individual results are averaged to provide overall response. 100 μl is applied to each equivalent for 1 hour of diluted product (10% dilution) exposure followed by 5 rinses of Ca, Mg Free PBS solution. Each Tissue is placed in a 6 well tray with assay medium for each rinse and returned to incubation for 24 hours. Following incubation tissues are assessed for cytokine responses of IL-1α.

| Substance | effect of PGE on mildness of the surfactant system |
| --- | --- |
| Polyglycerol-10-Myristate [PG-10-M] | improve the mildness |
| Polyglycerol-10-Oleate [PG-10-O] | improve the mildness |

— patent publication US8338348B2, “Skin cleansing compositions with polyglycerol esters and hydrophobically modified polymers” (Johnson & Johnson Consumer Companies, Inc., priority 2010, dated 2012)
